Laboratory results reported in patent publication US11952365B2, “Anti-viral compounds” (Aligos Therapeutics, Inc., priority 2020, dated 2024).
Like-named read-outs stand apart in the source and are kept apart here.

How the values were obtained:
[1] = system: SARS-CoV-2-GHB-03021/2020; experiment: microbe, parasite or virus in culture; type: cell-based; conditions: Severe acute respiratory syndrome coronavirus 2, Vero C1008, 96 h; read-out: VeroE6 + CP (EC50)
[2] = target: 3CLpro (Severe acute respiratory syndrome coronavirus 2, UniProt P0DTD1); experiment: SARS-CoV-2 3CLpro protease assay (duplex, SAMDI-MS); type: biochemical; parameters: For the duplex assay, 3CLpro and HRV3C was added; conditions: 3CLpro, 30 mins preincubation, read-out: SARS-Cov-2 IC50
[3] = target: HRV3C (Human rhinovirus 14, UniProt P03303); experiment: HRV3C protease assay (duplex, SAMDI-MS); type: biochemical, HRV; conditions: 30 mins preincubation
Experimental: Protease assays were performed in 384-well low volume polypropylene microtiter plates at ambient temperature. For the duplex assay, 3CLpro and HRV3C was added using a Multidrop Combi (Thermo Scientific; Waltham, MA) and preincubated for 30 mins with small molecules. The reactions were initiated by the addition of the two peptide substrates. The reactions were incubated for 30 mins and quenched by the addition of 0.5% formic acid (final) with subsequent neutralization using 1% sodium bicarbonate (final). Internal standard peptides were added in 20 mM Hepes pH 8.0 for quantitation of the protease products. For SAMDI-MS analysis, 2 μL of each reaction mixture was transferred using a 384-channel automated liquid handler to SAMDI biochip arrays functionalized with a neutravidin-presenting self-assembled monolayer. The SAMDI arrays were incubated for 1 h in a humidified chamber to allow the specific immobilization of the biotinylated peptide substrates, cleaved products and internal standards. The samples were purified by washing the SAMDI arrays with deionized ultrafiltered water and dried with compressed air. A matrix comprising alpha-cyano cinnamic acid in 80% acetonitrile:20% aqueous ammonium citrate was applied in an automated format by dispensing 50 nL to each spot in the array. SAMDI-MS was performed using reflector-positive mode on an AB Sciex TOF-TOF 5800 System (AB Sciex, Framingham, MA) with 400 shots/spot analyzed in a random raster sampling. For data analysis, area under the curves (peaks) (AUCs) for the product and internal standard were calculated using the TOF/TOF Series Explorer (AB Sciex), and the amount of product formed was calculated using the equation (AUC product/AUC internal standard). The amount of product generated was calculated using the ratio of product area under the curve (AUC) divided by the AUC of the internal standard. Negative controls were pre-quenched with 0.5% formic acid final. Assay robustness was determined by Z-Factor. The IC50s were determined by fitting the curves using a four-parameter equation in Graphpad Prism 8.

[4] = in vitro; conditions: African green monkey, VeroE6 + CP (CC50), Vero E6-eGFP cells with CP-100356, absence of virus, MTS
[5] = system: human beta-coronavirus OC43; experiment: microbe, parasite or virus in culture; type: cell-based; conditions: Betacoronavirus 1, OC43, HeLa, 144 h
[6] = Cytotoxicity plates without OC43 virus (cell-titer-glo); type: cell-based, human; conditions: human; HeLa cells without OC43 virus, class symbols
Experimental: The human beta-coronavirus OC43 was purchased from ATCC (Manassas, VA) and propagated using HCT-8 human colorectal epithelial cells (ATCC). HeLa human cervical epithelial cells (ATCC) were used as susceptible host cell lines and were cultured using EMEM media, supplemented with 10% fetal bovine serum (FBS), 1% (v/v) penicillin/streptomycin (P/S), 1% (v/v) HEPES and 1% (v/v) Cellgro Glutagro™ supplement (all Corning, Manassas, VA) at 37° C. For the OC43 antiviral assay, 1.5×10^4 HeLa cells per well were plated in 100 μL complete media in white 96-well plates with clear bottoms at 37° C. for up to 24 h to facilitate attachment and allow cells to recover from seeding stresses. Next day, the cell culture medium was removed. Serially diluted compounds in 100 μL assay media (EMEM, 2% FBS, 1% P/S, 1% Cellgro Glutagro™ supplement, 1% HEPES) were added to the cells and incubated for 4H at 37° C. in a humidified 5% CO2 incubator. 100 μL of OC43 virus stock was diluted to a concentration known to produce optimal cytopathic effect, inducing 80-90% reduction in cell viability. 96-well plates were incubated for 6 (HeLa) days at 33° C.; each plate contains uninfected control wells as well as virus-infected wells that were not treated with compound. Cytotoxicity plates without the addition of OC43 virus were carried out in parallel. At the end of the incubation period, 100 μL cell culture supernatant was replaced with 100 μL cell-titer-glo reagent (Promega, Madison, WI) and incubated for at least 10 min at rt prior to measuring luminescence. Luminescence was measured on a Perkin Elmer (Waltham, MA) Envision plate reader. Antiviral % inhibition was calculated as follows: [(Compound treated cells infected sample)−(no compound infected control)]/[(Uninfected control)−(no compound infected control)]*100; Using GraphPad (San Diego, CA) prism software version 8.3.1, the antiviral dose-response plot was generated as a sigmoidal fit, log(inhibitor) vs response-variable slope (four parameters) model and the EC50 was calculated which is the predicted compound concentration corresponding to a 50% inhibition of the viral cytopathic effect.

[7] = target: T1, human cathepsin L (Homo sapiens, UniProt P07711); experiment: cathepsin L assay; type: biochemical; conditions: 10 pM human cathepsin L, Z-FR-AMC 2 μM, class symbols
T1 construct: purchased R&D Systems
Experimental: For the cathepsin L assay, 10 pM of human cathepsin L (R&D Systems; Minneapolis, MN) was preincubated for 30 mins with test compounds. Reactions were initiated by the addition of a peptide substrate Z-FR-AMC (final concentration 2 μM, Anaspec; Fremont, CA). Fluorescence was measured at 2-minute intervals for 30 mins using a 355/460 excitation/emission filter module on an Envision plate reader (Perkin Elmer; Waltham, MA). The IC50 values were calculated for each assay by fitting the curves using a four-parameter equation in GraphPad Prism.

[8] = OC43 in HeLa cells, 6 days at 33° C., class symbols, read-out: EC50
[9] = HRV3C, class symbols, read-out: HRV IC50

Row | Compound | EC50 [1] | IC50 ([2]; class symbols) | IC50 ([3]; HRV IC50, HRV3C, class symbols) | CC50 ([4]; numeric bounds) | EC50 [5, 8] | CC50 at 6 days [6] | IC50 [3, 9] | CC50 ([4]; class symbols) | IC50 [7] | IC50 ([2]; bound) | IC50 ([3]; HRV IC50, HRV3C, bound) | EC50 [5]
1 | O=C(NCc1ccccc1)C(=O)C(C[C@@H]1CCNC1=O)NC(=O)[C@@H]1CCCCN1C(=O)c1cc2ccccc2[nH]1 (stereo partly drawn) [Compound 1, (2S)—N-(4-(benzylamino)-3,4-dioxo-1-((S)-2-oxopyrrolidin-3-yl)butan-2-yl)-1-(1H-indole-2-carbonyl)piperidine-2-carboxamide] | > 100 µM | 2 to 20 µM | 20 to 100 µM | > 100 µM | 1 to 10 µM | > 10 µM |  |  |  |  |  | 
2 | O=C(NCc1ccccc1)C(=O)C(C[C@@H]1CCNC1=O)NC(=O)[C@@H]1[C@H]2CCC[C@H]2CN1C(=O)c1cc2ccccc2[nH]1 (stereo partly drawn) [Compound 2, (1S,3aR,6aS)—N-(4-(benzylamino)-3,4-dioxo-1-((S)-2-oxopyrrolidin-3-yl)butan-2-yl)-2-(1H-indole-2-carbonyl)-octahydrocyclopenta[c]pyrrole-1-carboxamide] | 1 to 10 µM | 0.2 to 2 µM |  |  | 0.1 to 1 µM | > 10 µM | 2 to 20 µM | > 10 µM | 1 to 10 µM |  |  | 
3 | CC1(C)[C@@H]2[C@@H](C(=O)NC(C[C@@H]3CCNC3=O)C(=O)C(=O)NCc3ccccc3)N(C(=O)c3cc4ccccc4[nH]3)C[C@@H]21 (stereo partly drawn) [Compound 4, N-benzyl-3-[[(1R,2S,5S)-3-(1H-indole-2-carbonyl)-6,6-dimethyl-3-azabicyclo[3.1.0]hexan-2-yl]formamido]-2-oxo-4-[(3S)-2-oxopyrrolidin-3-yl]butanamide] | 1 to 10 µM | 0.2 to 2 µM |  | > 100 µM | 1 to 10 µM | > 10 µM | 2 to 20 µM |  | 0.1 to 1 µM |  |  | 
4 | O=C(NCc1ccccc1)C(=O)C(C[C@@H]1CCNC1=O)NC(=O)[C@@H]1C[C@@H](Oc2ccccc2)CN1C(=O)c1cc2ccccc2[nH]1 (some centres unmarked) [Compound 5] | 10 to 100 µM | 20 to 100 µM | 0.2 to 2 µM | > 100 µM | 1 to 10 µM | > 10 µM |  |  |  |  |  | 
5 | O=C(NCc1ccccc1)C(=O)C(C[C@@H]1CCNC1=O)NC(=O)[C@@H]1C[C@@H](OCc2ccccc2)CN1C(=O)c1cc2ccccc2[nH]1 (some centres unmarked) [Compound 6] | > 100 µM | 2 to 20 µM | 0.2 to 2 µM | > 100 µM | 1 to 10 µM | > 10 µM |  |  |  |  |  | 
6 | O=C(NCc1ccccc1)C(=O)C(C[C@@H]1CCNC1=O)NC(=O)[C@@H]1[C@H]2CC[C@H](C2)N1C(=O)c1cc2ccccc2[nH]1 (some centres unmarked) [Compound 8] | 10 to 100 µM | 0.2 to 2 µM |  | > 100 µM | 1 to 10 µM | > 10 µM | 2 to 20 µM |  | 0.1 to 1 µM |  |  | 
7 | O=C(NCc1ccccc1)C(=O)C(C[C@@H]1CCNC1=O)NC(=O)[C@@H]1CC2(CC2)CN1C(=O)c1cc2ccccc2[nH]1 (some centres unmarked) [Compound 9] | 1 to 10 µM | 0.02 to 0.2 µM |  | > 100 µM | 0.1 to 1 µM | > 10 µM | 2 to 20 µM |  | 0.1 to 1 µM |  |  | 
8 | CC(C)(C)O[C@@H]1C[C@@H](C(=O)NC(C[C@@H]2CCNC2=O)C(=O)C(=O)NCc2ccccc2)N(C(=O)c2cc3ccccc3[nH]2)C1 (some centres unmarked) [Compound 10] | > 100 µM | 2 to 20 µM | 0.2 to 2 µM | > 100 µM | 1 to 10 µM | > 10 µM |  |  |  |  |  | 
9 | CC1(C)C[C@@H](C(=O)NC(C[C@@H]2CCNC2=O)C(=O)C(=O)NCc2ccccc2)N(C(=O)c2cc3ccccc3[nH]2)C1 (some centres unmarked) [Compound 11] | 10 to 100 µM | 0.2 to 2 µM |  | > 100 µM | 1 to 10 µM | > 10 µM | 2 to 20 µM |  | < 0.1 µM |  |  | 
10 | CO[C@@H]1C[C@@H](C(=O)NC(C[C@@H]2CCNC2=O)C(=O)C(=O)NCc2ccccc2)N(C(=O)c2cc3ccccc3[nH]2)C1 (some centres unmarked) [Compound 12] | > 100 µM | 2 to 20 µM | 20 to 100 µM | > 100 µM | 10 to 100 µM | > 10 µM |  |  |  |  |  | 
11 | O=C[C@H](C[C@@H]1CCNC1=O)NC(=O)[C@@H]1[C@H]2CCC[C@H]2CN1C(=O)c1cc2ccccc2[nH]1 [Compound 13, (1S,3aR,6aS)-2-(1H-indole-2-carbonyl)-N-[(2S)-1-oxo-3-[(3S)-2-oxopyrrolidin-3-yl]propan-2-yl]-hexahydro-1H-cyclopenta[c]pyrrole-1-carboxamide] | 1 to 10 µM | < 0.02 µM |  | > 100 µM | 1 to 10 µM | > 10 µM | 0.2 to 2 µM |  | 1 to 10 µM |  |  | 
12 | COc1cccc2[nH]c(C(=O)N3C[C@@H]4CCC[C@@H]4[C@H]3C(=O)N[C@H](C=O)C[C@@H]3CCNC3=O)cc12 [Compound 14A, (1S,3aR,6aS)-2-(4-methoxy-1H-indole-2-carbonyl)-N-[(2S)-1-oxo-3-[(3S)-2-oxopyrrolidin-3-yl]propan-2-yl]-hexahydro-1H-cyclopenta[c]pyrrole-1-carboxamide] | 10 to 100 µM | 0.02 to 0.2 µM |  | > 100 µM | 1 to 10 µM | > 10 µM | 0.2 to 2 µM |  | ≥ 10 µM |  |  | 
13 | COc1cccc2[nH]c(C(=O)N3C[C@@H]4CCC[C@@H]4[C@H]3C(=O)N[C@@H](C[C@@H]3CCNC3=O)C(=O)c3cnc[nH]3)cc12 [Compound 74, (1S,3aR,6aS)—N-[(2S)-1-(3H-imidazol-4-yl)-1-oxo-3-[(3S)-2-oxopyrrolidin-3-yl]propan-2-yl]-2-(4-methoxy-1H-indole-2-carbonyl)-hexahydro-1H-cyclopenta[c]pyrrole-1-carboxamide] | 10 to 100 µM |  |  |  |  | > 10 µM |  | > 10 µM | ≥ 10 µM | > 10 µM | > 10 µM | > 10 µM
